The source made the active and inactive calls. The rule behind the calls is not given here.
System: rodent carcinogenicity bioassays, tumor incidence
Assay: CCRIS carcinogenicity studies
Summary of the method: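 NCI-built, expert-reviewed records of carcinogenicity and related test outcomes (mutagenicity, tumor promotion/inhibition) compiled from published and report sources, historical span 1985-2011, not updated.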

## CN(N=O)C(=O)NCCC[C@H](N)C(=O)O
Species: HAMSTER, Strain/Sex: SYRIAN/FEMALE, Route: INTRAPERITONEAL, Dose: 218, 654 MG/KG 1/WK FOR 12 WK (LOW DOSE) OR 6 WK (HIGH DOSE), Tumor Site: Type of Lesion: PANCREAS: CARCINOMA, CARCINOMA (IN SITU), PERITONEAL CAVITY: MESOTHELIOMA;MAMMARY GLAND: CARCINOMA, STOMACH: PAPILLOMA,, Tumor Site: Type of Lesion: PANCREAS: CARCINOMA, CARCINOMA (IN SITU), PERITONEAL CAVITY: MESOTHELIOMA;MAMMARY GLAND: CARCINOMA, STOMACH: PAPILLOMA
  carcinogen call: active; positive
Species: HAMSTER, Strain/Sex: SYRIAN/MALE, Route: INTRAPERITONEAL, Dose: 218, 654 MG/KG 1/WK FOR 12 WK (LOW DOSE) OR 6 WK (HIGH DOSE), Tumor Site: Type of Lesion: PANCREAS: CARCINOMA, CARCINOMA (IN SITU), STOMACH: PAPILLOMA
  carcinogen call: active; positive

## C[N+]1(C)CCCCC1
Species: Rat, Strain/Sex: Wistar/Female (50/Group), Route: Oral, Dose: 0, 17, 141, 370 mg/kg/day of 57.9% mepiquat chloride in diet for 24 mo, study duration 24 mo, Dose: 0, 17, 141, 370 mg/kg/day of 57.9% mepiquat chloride in diet for 24 mo, study duration 24 mo
  carcinogen call: inactive; negative
Species: Rat, Strain/Sex: Wistar/Male (50/Group), Route: Oral, Dose: 0, 13, 105, 269 mg/kg/day of 57.9% mepiquat chloride in diet for 24 mo, study duration 24 mo, Dose: 0, 13, 105, 269 mg/kg/day of 57.9% mepiquat chloride in diet for 24 mo, study duration 24 mo
  carcinogen call: inactive; negative

## O[C@@H]1C=Cc2c(cc3ccc4cccc5ccc2c3c45)[C@H]1O
Species: FISH, Strain/Sex: RAINBOW TROUT/MALE,FEMALE, Route: INJECTION, Dose: 0, 0.5, 2, 5 UG INJECTED INTO NEWLY HATCHED SAC-FRY (STUDY DURATION: 9 MO), Dose: 0, 0.5, 2, 5 UG INJECTED INTO NEWLY HATCHED SAC-FRY (STUDY DURATION: 9 MO), Tumor Site: Type of Lesion: LIVER: TUMOR
  carcinogen call: active; positive

## CC1=C[C@H]2O[C@@H]3[C@H](O)C[C@](C)([C@@]2(CO)[C@H](O)C1=O)[C@]31CO1
Species: MOUSE, Strain/Sex: B6C3F1/FEMALE, Route: ORAL, Dose: 0, 1, 5, 10 PPM IN DIET FOR 2 YR (STUDY DURATION: 2 YR), Dose: 0, 1, 5, 10 PPM IN DIET FOR 2 YR (STUDY DURATION: 2 YR)
  carcinogen call: inactive; negative
Species: MOUSE, Strain/Sex: B6C3F1/MALE, Route: ORAL, Dose: 0, 1, 5, 10 PPM IN DIET FOR 2 YR (STUDY DURATION: 2 YR), Dose: 0, 1, 5, 10 PPM IN DIET FOR 2 YR (STUDY DURATION: 2 YR)
  carcinogen call: inactive; negative

## CN1CCCC1=O
Species: MOUSE, Strain/Sex: B6C3F1/FEMALE, Route: ORAL, Dose: 0, 600, 1200, 7200 PPM IN DIET FOR 18 MO (STUDY DURATION: 18 MO), Dose: 0, 600, 1200, 7200 PPM IN DIET FOR 18 MO (STUDY DURATION: 18 MO), Tumor Site: Type of Lesion: LIVER: HEPATOCELLULAR ADENOMA, HEPATOCELLULAR CARCINOMA
  carcinogen call: active; positive
Species: MOUSE, Strain/Sex: B6C3F1/MALE, Route: ORAL, Dose: 0, 600, 1200, 7200 PPM IN DIET FOR 18 MO (STUDY DURATION: 18 MO), Dose: 0, 600, 1200, 7200 PPM IN DIET FOR 18 MO (STUDY DURATION: 18 MO), Tumor Site: Type of Lesion: LIVER: HEPATOCELLULAR ADENOMA, HEPATOCELLULAR CARCINOMA
  carcinogen call: active; positive
Species: RAT, Strain/Sex: CD-1/FEMALE, Route: INHALATION, Dose: 0, 0.04, 0.4 MG/L 6 HR/D 5D/WK FOR 2 YR (STUDY DURATION: 2 YR), Dose: 0, 0.04, 0.4 MG/L 6 HR/D 5D/WK FOR 2 YR (STUDY DURATION: 2 YR)
  carcinogen call: inactive; negative
Species: RAT, Strain/Sex: CD-1/FEMALE, Route: ORAL, Dose: 0, 1600, 5000, 15000 PPM IN DIET FOR 2 YR (STUDY DURATION: 2 YR), Dose: 0, 1600, 5000, 15000 PPM IN DIET FOR 2 YR (STUDY DURATION: 2 YR)
  carcinogen call: inactive; negative
Species: RAT, Strain/Sex: CD-1/MALE, Route: INHALATION, Dose: 0, 0.04, 0.4 MG/L 6 HR/D 5D/WK FOR 2 YR (STUDY DURATION: 2 YR), Dose: 0, 0.04, 0.4 MG/L 6 HR/D 5D/WK FOR 2 YR (STUDY DURATION: 2 YR)
  carcinogen call: inactive; negative
Species: RAT, Strain/Sex: CD-1/MALE, Route: ORAL, Dose: 0, 1600, 5000, 15000 PPM IN DIET FOR 2 YR (STUDY DURATION: 2 YR), Dose: 0, 1600, 5000, 15000 PPM IN DIET FOR 2 YR (STUDY DURATION: 2 YR)
  carcinogen call: inactive; negative

## CCC(=O)Oc1ccc2c(c1)CC[C@@H]1[C@@H]2CC[C@]2(C)[C@@H](OC(=O)CC)CC[C@@H]12
Species: MOUSE, Route: SUBCUTANEOUS, Tumor Site: Type of Lesion: MAMMARY GLAND
  carcinogen call: active; positive

## ClC1=C(Cl)[C@]2(Cl)C3C(Cl)C(Cl)CC3[C@@]1(Cl)C2(Cl)Cl (some centres not stated)
Species: MOUSE, Strain/Sex: B6C3F1/FEMALE, Route: ORAL, Dose: 0, 30.1, 63.8 PPM IN DIET, TWA, Dose: 0, 30.1, 63.8 PPM IN DIET, TWA, Tumor Site: Type of Lesion: LIVER: HEPATOCELLULAR CARCINOMA
  carcinogen call: active; positive
Species: MOUSE, Strain/Sex: B6C3F1/MALE, Route: ORAL, Dose: 0, 29.9, 56.2 PPM IN DIET, TWA, Dose: 0, 29.9, 56.2 PPM IN DIET, TWA, Tumor Site: Type of Lesion: LIVER: HEPATOCELLULAR CARCINOMA
  carcinogen call: active; positive
Species: MOUSE, Strain/Sex: B6C3F1/MALE, Route: ORAL, Dose: 0, 55 PPM IN DIET BEGINNING AT 63 D OF AGE, AT 8 MO OF AGE DOSE INCREASED TO 60 PPM AND CONTINUED UNTIL 491 D OF AGE (ST, Tumor Site: Type of Lesion: LIVER: HEPATOCELLULAR ADENOMA, HEPATOCELLULAR CARCINOMA
  carcinogen call: active; positive
Species: MOUSE, Strain/Sex: B6C3F1/MALE, Route: ORAL, Dose: 0, 55 PPM IN DIET BEGINNING AT 63 D OF AGE, AT 8 MO OF AGE DOSE WAS INCREASED TO 60 PPM FOR DURATION OF STUDY (STUDY DUR, Tumor Site: Type of Lesion: LIVER: HEPATOCELLULAR ADENOMA, HEPATOCELLULAR CARCINOMA
  carcinogen call: active; positive
Species: MOUSE, Strain/Sex: B6D2F1/MALE, Route: ORAL, Dose: 0, 55 PPM IN DIET BEGINNING AT 63 D OF AGE, AT 8 MO OF AGE DOSE INCREASED TO 60 PPM AND CONTINUED UNTIL 491 D OF AGE (ST, Tumor Site: Type of Lesion: LIVER: HEPATOCELLULAR ADENOMA, HEPATOCELLULAR CARCINOMA
  carcinogen call: active; positive
Species: MOUSE, Strain/Sex: B6D2F1/MALE, Route: ORAL, Dose: 0, 55 PPM IN DIET BEGINNING AT 63 D OF AGE, AT 8 MO OF AGE DOSE WAS INCREASED TO 60 PPM FOR DURATION OF STUDY (STUDY DUR, Tumor Site: Type of Lesion: LIVER: HEPATOCELLULAR ADENOMA, HEPATOCELLULAR CARCINOMA
  carcinogen call: active; positive
Species: MOUSE, Strain/Sex: CD-1/MALE,FEMALE, Route: DIET, Dose: 0, 5, 25, 50 MG/KG FOR 18 MO, Tumor Site: Type of Lesion: LIVER: HEPATOCELLULAR CARCINOMA
  carcinogen call: active; positive
Species: RAT, Strain/Sex: OSBORNE-MENDEL/FEMALE, Route: ORAL, Dose: 0, 120.8, 241.5PPM IN DIET, TWA, Dose: 0, 120.8, 241.5PPM IN DIET, TWA
  carcinogen call: inactive; negative
Species: RAT, Strain/Sex: OSBORNE-MENDEL/MALE, Route: ORAL, Dose: 0, 203.5, 407.0PPM IN DIET, TWA, Dose: 0, 203.5, 407.0PPM IN DIET, TWA
  carcinogen call: inactive; negative

## COc1ccc(OC(=O)N(CC(=O)O)Cc2ccc(OCCc3nc(-c4ccccc4)oc3C)cc2)cc1
Species: Mouse, Strain/Sex: Crl:CD-1 (ICR)BR/Female (60/group), Route: Oral, Dose: 0, 1, 5, 20 mg/kg (initial group) or 0, 40 mg/kg (supplemental group) by gavage daily for up to 105 wks, vehicle cont, Dose: 0, 1, 5, 20 mg/kg (initial group) or 0, 40 mg/kg (supplemental group) by gavage daily for up to 105 wks, vehicle cont
  carcinogen call: inactive; negative (slight increases in hemangiosarcoma (multiple organs) and mammary glan
Species: Mouse, Strain/Sex: Crl:CD-1 (ICR)BR/Male (60/group), Route: Oral, Dose: 0, 1, 5, 20 mg/kg (initial group) or 0, 40 mg/kg (supplemental group) by gavage daily for up to 105 wks, vehicle cont, Dose: 0, 1, 5, 20 mg/kg (initial group) or 0, 40 mg/kg (supplemental group) by gavage daily for up to 105 wks, vehicle cont, Tumor Site: Type of Lesion: GALLBLADDER: adenoma (1/60 at 20 mg/kg, 2/60 at 40 mg/kg), not significant
  carcinogen call: inactive; negative (although statistical significance was not obtained, the authors consid
Species: Rat, Strain/Sex: Hsd:Sprague Dawley SD/Female (65/group), Route: Oral, Dose: 0, 1, 5, 30, 50 mg/kg by gavage daily for up to 105 wks, vehicle controls administered alkaline PEG-400, Dose: 0, 1, 5, 30, 50 mg/kg by gavage daily for up to 105 wks, vehicle controls administered alkaline PEG-400, Tumor Site: Type of Lesion: SUBCUTANEOUS TISSUE: lipoma (50 mg/kg only). UTERUS: Squamous cell carcinoma, adenoma and carcinoma, and squamous cell p, Tumor Site: Type of Lesion: SUBCUTANEOUS TISSUE: lipoma (50 mg/kg only). UTERUS: Squamous cell carcinoma, adenoma and carcinoma, and squamous cell p
  carcinogen call: active; positive (weak response)
Species: Rat, Strain/Sex: Hsd:Sprague Dawley SD/Male (65/group), Route: Oral, Dose: 0, 1, 5, 30, 50 mg/kg by gavage daily for up to 105 wks, vehicle controls administered alkaline PEG-400, Dose: 0, 1, 5, 30, 50 mg/kg by gavage daily for up to 105 wks, vehicle controls administered alkaline PEG-400, Tumor Site: Type of Lesion: URINARY BLADDER: transitional cell carcinoma and papilloma at 5, 30, and 50 mg/kg associated with increased urinary soli
  carcinogen call: active; positive, muraglitazar reported to be a peroxisome proliferator-activated recept
